Test results published in patent US20210212320A1, “FRUIT THINNING METHOD WITH 1-AMINOCYCLOPROPANE CARBOXYLIC ACID” (Valent BioSciences LLC, priority 2021, published 2021).

Key:
Sweet Dream peaches = experiment: Effect of ACC concentration on fruit set of Sweet Dream peaches, applied at full bloom; format: in vivo, peach
Description: (§1) Effect of ACC concentration on fruit set (number of fruit per shoot) of Sugar May peaches and Sweet Dream peaches when applied at full bloom

Gala apples = experiment: Effect of ACC concentration on modulating fruit set of Gala apples; format: in vivo, apple
Description: Effect of ACC concentration on modulating fruit set (number of fruit per 100 flower clusters) of Gala apples when applied at petal fall (BBCH67), 10 mm fruit diameter, or 20 mm fruit diameter.

Sugar May peaches = experiment: Effect of ACC concentration on fruit set of Sugar May peaches, applied at full bloom; format: in vivo, peach
Description: as §1

## NC1(C(=O)O)CC1 [ACC, 1-aminocyclopropane carboxylic acid]
Sweet Dream peaches; ACC 300 parts per million
  Number of Fruit Per Shoot (fruit set): 12 fruit per shoot
Sweet Dream peaches; ACC 600 parts per million
  Number of Fruit Per Shoot (fruit set): 9 fruit per shoot
Sweet Dream peaches; ACC 900 parts per million
  Number of Fruit Per Shoot (fruit set): 6 fruit per shoot
Gala apples; ACC 224 parts per million, applied at 10 mm fruit diameter
  fruit set (number of fruit per 100 flower clusters): 125 fruit per 100 flower clusters
Gala apples; ACC 224 parts per million, applied at 20 mm fruit diameter
  fruit set (number of fruit per 100 flower clusters): 89 fruit per 100 flower clusters
Gala apples; ACC 224 parts per million, applied at petal fall (BBCH67)
  fruit set (number of fruit per 100 flower clusters): 117 fruit per 100 flower clusters
Gala apples; ACC 450 parts per million, applied at 10 mm fruit diameter
  fruit set (number of fruit per 100 flower clusters): 108 fruit per 100 flower clusters
Gala apples; ACC 450 parts per million, applied at 20 mm fruit diameter
  fruit set (number of fruit per 100 flower clusters): 46 fruit per 100 flower clusters
Gala apples; ACC 450 parts per million, applied at petal fall (BBCH67)
  fruit set (number of fruit per 100 flower clusters): 96 fruit per 100 flower clusters
Gala apples; ACC 900 parts per million, applied at 10 mm fruit diameter
  fruit set (number of fruit per 100 flower clusters): 63 fruit per 100 flower clusters
Gala apples; ACC 900 parts per million, applied at 20 mm fruit diameter
  fruit set (number of fruit per 100 flower clusters): 12 fruit per 100 flower clusters
Gala apples; ACC 900 parts per million, applied at petal fall (BBCH67)
  fruit set (number of fruit per 100 flower clusters): 72 fruit per 100 flower clusters
Sugar May peaches; ACC 300 parts per million
  Number of Fruit Per Shoot (fruit set): 0.7 fruit per shoot
Sugar May peaches; ACC 600 parts per million
  Number of Fruit Per Shoot (fruit set): 0.3 fruit per shoot
Sugar May peaches; ACC 900 parts per million
  Number of Fruit Per Shoot (fruit set): 0.1 fruit per shoot
